Assays:
Assay in all cases: relative viability (nuclei count vs DMSO), 5 days (fraction); higher = more cells survive
BAY61-3606 + AZD7762 = compound: COC1=C(C=C(C=C1)C2=CC3=NC=CN3C(=N2)NC4=C(C=CC=N4)C(=O)N)OC [BAY61-3606] + NC(=O)Nc1cc(-c2cccc(F)c2)sc1C(=O)N[C@H]1CCCNC1 [AZD7762] (partner 0.2 µM)
How it was run: (§1)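 Relative viability is defined as nuclei in treated wells over nuclei in vehicle wells. Duplicate plates were run and medians reported. Lung cancer cell lines in 1536-well plates were dosed by pin tool one day after seeding, with one drug or with a fixed anchor-drug dose plus five library-drug doses (not always all listed) in √10 steps, and nuclei were counted after 5 days.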

Doxorubicin + Phenformin = compound: COc1cccc2c1C(=O)c1c(O)c3c(c(O)c1C2=O)C[C@@](O)(C(=O)CO)C[C@@H]3O[C@H]1C[C@H](N)[C@H](O)[C@H](C)O1 [Doxorubicin] + N=C(N)NC(=N)NCCc1ccccc1 [Phenformin] (partner 250 µM)
How it was run: as §1

BAY61-3606 + Pemetrexed = compound: COC1=C(C=C(C=C1)C2=CC3=NC=CN3C(=N2)NC4=C(C=CC=N4)C(=O)N)OC [BAY61-3606] + Nc1nc2[nH]cc(CCc3ccc(C(=O)N[C@@H](CCC(=O)O)C(=O)O)cc3)c2c(=O)[nH]1 [Pemetrexed] (partner 0.2 µM)
How it was run: as §1

BAY61-3606 + Tozasertib = compound: COC1=C(C=C(C=C1)C2=CC3=NC=CN3C(=N2)NC4=C(C=CC=N4)C(=O)N)OC [BAY61-3606] + Cc1cc(Nc2cc(N3CCN(C)CC3)nc(Sc3ccc(NC(=O)C4CC4)cc3)n2)n[nH]1 [Tozasertib] (partner 0.1 µM)
How it was run: as §1

Cell Line | relative viability (BAY61-3606 + AZD7762; first compound 0.02 µM) | relative viability (BAY61-3606 + AZD7762; first compound 0.06325 µM) | relative viability (BAY61-3606 + AZD7762; first compound 0.2 µM) | relative viability (BAY61-3606 + AZD7762; first compound 0.6325 µM) | relative viability (BAY61-3606 + AZD7762; first compound 2 µM) | relative viability (Doxorubicin + Phenformin; first compound 0.001 µM) | relative viability (Doxorubicin + Phenformin; first compound 0.003162 µM) | relative viability (Doxorubicin + Phenformin; first compound 0.01 µM) | relative viability (Doxorubicin + Phenformin; first compound 0.03162 µM) | relative viability (Doxorubicin + Phenformin; first compound 0.1 µM) | relative viability (BAY61-3606 + Pemetrexed; first compound 0.02 µM) | relative viability (BAY61-3606 + Pemetrexed; first compound 0.06325 µM) | relative viability (BAY61-3606 + Pemetrexed; first compound 0.2 µM) | relative viability (BAY61-3606 + Pemetrexed; first compound 0.6325 µM) | relative viability (BAY61-3606 + Pemetrexed; first compound 2 µM) | relative viability (BAY61-3606 + Tozasertib; first compound 0.02 µM) | relative viability (BAY61-3606 + Tozasertib; first compound 0.06325 µM) | relative viability (BAY61-3606 + Tozasertib; first compound 0.2 µM) | relative viability (BAY61-3606 + Tozasertib; first compound 0.6325 µM) | relative viability (BAY61-3606 + Tozasertib; first compound 2 µM)
NCI-H2347 | 0.801 | 0.701 | 0.73 | 0.67 | 0.709 | 0.434 | 0.513 | 0.428 | 0.374 | 0.273 | 0.429 | 0.424 | 0.438 | 0.418 | 0.403 | 0.531 | 0.384 | 0.394 | 0.427 | 0.32
NCI-H2405 | 0.832 | 0.658 | 0.748 | 0.658 | 0.496 | 0.346 | 0.373 | 0.436 | 0.419 | 0.355 | 1.09 | 1.08 | 1.01 | 1.01 | 0.82 | 0.698 | 0.426 | 0.479 | 0.491 | 0.287
NCI-H3122 | 0.989 | 0.968 | 0.962 | 1.02 | 0.945 | 0.369 | 0.365 | 0.337 | 0.245 | 0.148 | 0.208 | 0.219 | 0.211 | 0.187 | 0.201 | 0.456 | 0.262 | 0.377 | 0.438 | 0.305
PC-3 [JPC-3] | 0.675 | 0.794 | 0.809 | 0.801 | 0.752 | 0.448 | 0.478 | 0.515 | 0.468 | 0.471 | 1.12 | 1.05 | 1.21 | 1.13 | 1.04 |  | 0.891 | 0.889 | 0.837 | 0.613
PC-14 | 0.418 | 0.268 | 0.35 | 0.32 | 0.342 | 0.421 | 0.629 | 0.709 | 0.284 | 0.213 | 0.159 | 0.136 | 0.134 | 0.137 | 0.148 | 0.597 | 0.637 | 0.5 | 0.568 | 0.174
RERF-LC-KJ | 1.07 | 0.846 | 1.03 | 0.872 | 0.869 | 0.397 | 0.443 | 0.372 | 0.325 | 0.271 | 0.467 | 0.463 | 0.501 | 0.484 | 0.432 | 0.532 | 0.435 | 0.399 | 0.368 | 0.279
SW 900 | 0.591 |  |  | 0.632 | 0.758 | 0.704 | 0.685 | 0.607 | 0.328 | 0.138 | 0.473 |  |  | 0.465 | 0.358 | 0.576 | 0.582 | 0.372 | 0.294 | 0.237

Reference: the supplement of paper PMC10307832
